The source of these data is US20260258003A1, “SLACK-ACTIVATING COMPOUNDS AND THEIR MEDICAL USE” (Johann Wolfgang Goethe-Universität Frankfurt am Main, priority 2023, published 2026).

The test system of data set [1] is CFA-induced paw hypersensitivity of mice. The data set can be described thus: CFA-induced inflammatory pain model. Type of data set: in vivo. The conditions noted are these: 10 mg/kg i.p. 24 h after CFA; 0.5 h and 1 h after administration. Here is the method: Animals: Experiments were performed in 8-16 week-old C57BL/6N mice (Charles River, Sulzfeld, Germany) of either sex. The animals were housed under a 12 h light/dark cycle with access to food and water ad libitum. All experiments adhered to the Animal Research: Reporting on In Vivo Experiments (ARRIVE) guidelines and were approved by and conducted in accordance with the regulations of the local Animal Welfare authorities (Regierungspräsidium Darmstadt, Germany; approval number V54-19c20/15-FR/2011). All behavioral studies were conducted during the light cycle of the day at room temperature (20-24° C.) by an observer blinded for the treatment of the animals and/or their genotype.
Behavioral assessment: Mechanical sensitivity of a hindpaw was assessed using a dynamic plantar aesthesiometer (Ugo Basile, Comerio, VA, Italy). Animals were placed on a wire mesh grid and habituated to the apparatus chamber for 1 h. […] The paw withdrawal latency was recorded automatically and calculated as the average of 6-8 measurements. […] Mechanical sensitivity was again determined 24 h after the CFA injection. Immediately thereafter, drug or vehicle (10% cyclodextrine in 0.9% NaCl) were intraperitoneally administered and the mechanical sensitivity was determined over 3 h. […]

A short description of data set [2]: Microsomal stability assay in liver microsomes. It counts as in vitro ADME, Sprague-Dawley rats. The note with it: 10 μM, rat liver microsomes. Here is the method: For Compound 10, the metabolic stability in liver microsomes as shown in Table 4 was determined by the following assay. The test compound was dissolved in DMSO (1 mM). The solubilized test compound (5 μL, final concentration 10 μM) was preincubated at 37° C. in 432 μL of phosphate buffer (0.1 M, pH=7.4) together with 50 μL of NADPH regenerating system (30 mM glucose-6-phosphate, 4 U/mL glucose 6-phosphate dehydrogenase, 10 mM NADP, 30 mM MgCl2). After 5 min, the reaction was started by the addition of 13 μL of microsome mix from the liver of Sprague-Dawley rats (Invitrogen; 20 mg protein/mL in 0.1 M phosphate buffer) in a shaking water bath at 37° C. The reaction was stopped by adding 500 μL of ice-cold methanol at 0, 15, 30, and 60 min. The samples were centrifuged at 5000×g for 5 min at 4° C., and the test compound was quantified from the supernatants by HPLC: the composition of the mobile phase was adapted to the test compound in a range of MeOH 40-90% and water (0.1% formic acid) 10-60%. Flow rate: 1 mL/min; stationary phase: Purospher STAR, RP18, 5 μm, 125×4; precolumn: Purospher STAR, RP18, 5 μm, 4×4; detection wavelength: 254 and 280 nm; injection volume: 50 μL. Control samples were performed to check the test compound's stability in the reaction mixture. First control was without NADPH, which is needed for the enzymatic activity of the microsomes, second control was with inactivated microsomes (incubated for 20 min at 90° C.), and third control was without the test compound (to determine the baseline). The amounts of the test compound were quantified by an external calibration curve. Data are expressed as the mean±SEM remaining compound from three independent experiments. In vitro half-life was calculated by a logarithmic-linear transformation of the remaining amounts of nonmetabolized test compound versus time.
For orientation: Microsomes from liver hold many membrane-bound enzymes, among them those of drug oxidation.

In data set [3] the test system is neuropathic pain behavior of mice. Description: Spared nerve injury (SNI) model of neuropathic pain. It counts as in vivo. The conditions noted are these: i.p., 28 days after SNI surgery, assessed over 3 h. Here is the method:
FIG. 8: Compound 6 and Compound 10 inhibit histamine-independent acute itch behavior and neuropathic pain behavior. (A), (B), Motor function. […] Dotted lines indicate cutoff times. * p<0.05, *** p<0.001, Kruskal-Wallis test. (C)-(G), Acute itch behavior. Compound 6, Compound 10 or vehicle were i.p. administered and 15 min thereafter different pruritogens were s.c. administered into the nape of the neck and the number of scratching bouts was counted over 30 min. In each panel, the time course of scratching behavior is shown on the left and the sum of scratching bouts in 30 min is presented on the right. (C), Compound 6 and Compound 10 inhibited the scratching behavior induced by chloroquine in a dose-dependent manner. (D) Compound 6 inhibited the chloroquine-induced scratching behavior in WT mice but not in Slack^−/− littermates. (E) Compound 6 ameliorated the scratching behavior induced by SLIGRL, (F) but not by histamine. n=7-8 per group. […] Twenty-eight days thereafter, mechanical hypersensitivity of the affected hindpaw (determined using a Dynamic Plantar Aesthesiometer), which is indicated by decreased paw withdrawal latency time, was detected in all mice. Then Compound 10 or vehicle were i.p. administered and the mechanical sensitivity was assessed over 3 h. […]

Consider `O=C(O)COCCN1CCN(C2=Nc3ccccc3Oc3ccc(Cl)cc32)CC1` [Compound 6, 2-(2-(4-(2-Chlorodibenzo[b,f][1,4]oxazepin-11-yl)piperazin-1-yl)ethoxy) acetic acid], for which the “paw withdrawal latencies compared to vehicle-treated animals” value in data set [1] is reported as “significantly increased”.

Turning to `O=c1nc(CN2CCN(C3=Nc4ccccc4Oc4ccc(Cl)cc43)CC2)[nH][nH]1` [Compound 10, 5-((4-(2-Chlorodibenzo[b,f][1,4]oxazepin-11-yl)piperazin-1-yl)methyl)-1,2-dihydro-3H-1,2,4-triazol-3-one], the results for the “Metabolic stability (remaining compound)” value in data set [2] (15 min), in data set [2] (30 min) and in data set [2] (60 min) were 55%, 35% and 16%, respectively. The “neuropathic pain behavior (mechanical hypersensitivity, paw withdrawal latency)” value in data set [3] is given as “inhibited the neuropathic pain behavior”.
